Results as given in patent publication US6362369B1, “Phthalic acid diamide derivatives fluorine-containing aniline compounds as starting material, agricultural and horticultural insecticides, and a method for application of the insecticides” (Nihon Nohyaku Co., Ltd., priority 1997, dated 2002).

How the values were obtained:
Format in all cases: in vivo
[1] = system: diamondback moth (Plutella xylostella); test: Insecticidal effect on diamondback moth (Test Example 1); conditions: for Insecticidal effect, Test Example 1 / Insecticidal effect (Test Example 1), judged from mortality: diamondback moth; for Insecticidal effect on diamondback moth (Test Example 1), judged grade: mortality judged according to the criterion shown in Test Example 1; for Insecticidal effect (Test Example 1), judged from mortality: judged by the criterion of Test Example 1
In short: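 Triplicate groups of 10 insects: eggs laid on Chinese cabbage seedling by adults, seedling immersed then air-dried, kept at 25° C. Day-6 hatch counts gave mortality, rated by criterion.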

[2] = system: common cutworm (Spodoptera Litura); test: Insecticidal effect on common cutworm (Test Example 2); conditions: 500 ppm, 25° C.; for Insecticidal effect, Test Example 2: cabbage leaf immersed; for Insecticidal effect, Test Example 2 / Insecticidal effect on common cutworm (Test Example 2), judged grade: eight days after inoculation; for Insecticidal effect on common cutworm (Test Example 2), judged grade / Insecticidal effect (Test Example 2), judged from mortality: cabbage leaf dip; for Insecticidal effect on common cutworm (Test Example 2), judged grade: second-instar larvae; for Insecticidal effect (Test Example 2), judged from mortality: 8 days after inoculation
In short: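 Insecticidal effect was rated from percent mortality of second-instar larvae exposed to air-dried treatment at 25° C for 8 days.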

[3] = system: rice leafroller (Cnaphalocrocis medinalis); test: Insecticidal effect on rice leafroller (Test Example 3); conditions: 500 ppm, 25° C., humidity 70%; for Insecticidal effect, Test Example 3: rice lamina immersed; for Insecticidal effect, Test Example 3 / Insecticidal effect on rice leafroller (Test Example 3), judged grade: four days after inoculation; for Insecticidal effect on rice leafroller (Test Example 3), judged grade / Insecticidal effect (Test Example 3), judged from mortality: rice lamina dip; for Insecticidal effect on rice leafroller (Test Example 3), judged grade: third-instar larvae; for Insecticidal effect (Test Example 3), judged from mortality: 4 days after inoculation
In short: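 Insecticidal effect is judged by a predefined criterion from dead/alive counts four days after infesting air-dried lamina with third-instar larvae, kept on moistened filter paper at 25° C, 70% humidity.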

[4] = judged by the mortality criterion of Test Example 1
[5] = second-instar larvae of common cutworm
[6] = third-instar larvae of rice leafroller
[7] = mortality judged by criterion of Test Example 1
[8] = common cutworm second-instar larvae
[9] = rice leafroller third-instar larvae

Compound | Insecticidal effect, Test Example 1 [1, 7] | Insecticidal effect, Test Example 2 [2, 8] | Insecticidal effect, Test Example 3 [3, 9] | also measured
Cc1cc(OCC(F)(F)C(F)F)ccc1NC(=O)c1c(Br)cccc1C(=O)NC(C)C [compound 319] |  |  |  | Insecticidal effect, Test Example 1 [1, 4]: A (100); Insecticidal effect, Test Example 2 [2, 5]: B (99-90); Insecticidal effect, Test Example 3 [3, 6]: B (99-90)
COc1ccc(-c2ccccc2)cc1NC(=O)c1cccc(Cl)c1C(=O)NC(C)C [compound 1296] | A (100) | A (100) | A (100) | 
Cc1ccc(F)cc1NC(=O)c1c(F)cccc1C(=O)NC(C)C [compound 549] |  |  |  | Insecticidal effect on diamondback moth (Test Example 1), judged grade [1]: A (100); Insecticidal effect on common cutworm (Test Example 2), judged grade [2]: A (100); Insecticidal effect on rice leafroller (Test Example 3), judged grade [3]: D (79-50)
Cc1cc(C(F)(F)C(F)(F)F)ccc1NC(=O)c1cccc(Cl)c1C(=O)NC(C)(C)c1ccccc1 [compound 1417] | A (100) | A (100) | A (100) | 
CCc1cc(OC(F)(F)F)ccc1NC(=O)c1cccc(I)c1C(=O)N(CC)CC [compound 1212] | A (100) | A (100) | A (100) | 
Cc1cc(I)ccc1NC(=O)c1c(Br)cccc1C(=O)NC(C)C [compound 313] |  |  |  | Insecticidal effect, Test Example 1 [1, 4]: A (100); Insecticidal effect, Test Example 2 [2, 5]: A (100); Insecticidal effect, Test Example 3 [3, 6]: A (100)
Cc1cc(NC(=O)c2cccc(I)c2C(=O)NC(C)(C)C)ccc1C(F)(F)C(F)(F)F [compound 1552] |  |  |  | Insecticidal effect (Test Example 1), judged from mortality [1]: A (100); Insecticidal effect (Test Example 2), judged from mortality [2, 5]: A (100); Insecticidal effect (Test Example 3), judged from mortality [3, 6]: A (100)
Cc1cc(OCC(F)(F)F)ccc1NC(=O)c1cccc(I)c1C(=O)NC(C)C [compound 379] |  |  |  | Insecticidal effect, Test Example 1 [1, 4]: A (100); Insecticidal effect, Test Example 2 [2, 5]: A (100); Insecticidal effect, Test Example 3 [3, 6]: A (100)
CC(C)NC(=O)c1c(C(=O)Nc2ccc(C(F)(F)C(F)(F)F)cc2)cccc1[N+](=O)[O-] [compound 890] |  |  |  | Insecticidal effect on diamondback moth (Test Example 1), judged grade [1]: A (100); Insecticidal effect on common cutworm (Test Example 2), judged grade [2]: A (100); Insecticidal effect on rice leafroller (Test Example 3), judged grade [3]: A (100)
Cc1cc(C(F)(F)C(F)(F)F)ccc1NC(=O)c1cccc(C)c1C(=O)NC(C)C [compound 953] | A (100) | A (100) | A (100) | 
Cc1cc(C(F)(F)C(F)(F)F)ccc1NC(=O)c1ccc(Cl)cc1C(=O)NC(C)(C)C [compound 1278] | A (100) | A (100) | A (100) | 
Cc1cc(OC(F)(F)C(F)F)c(Cl)cc1NC(=O)c1c(Cl)cccc1C(=O)NC(C)C [compound 246] |  |  |  | Insecticidal effect, Test Example 1 [1, 4]: A (100); Insecticidal effect, Test Example 2 [2, 5]: B (99-90); Insecticidal effect, Test Example 3 [3, 6]: B (99-90)
CC(C)NC(=O)c1c(C(=O)Nc2ccc(OC(F)(F)F)cc2)cccc1[N+](=O)[O-] [compound 618] |  |  |  | Insecticidal effect on diamondback moth (Test Example 1), judged grade [1]: A (100); Insecticidal effect on common cutworm (Test Example 2), judged grade [2]: A (100); Insecticidal effect on rice leafroller (Test Example 3), judged grade [3]: A (100)
CC(C)NC(=O)c1c(I)cccc1C(=O)Nc1ccc([S+]([O-])C(F)(F)Br)cc1 (stereo not drawn) [compound 1113] | A (100) | A (100) | A (100) | 
CC(C)(C)NC(=O)c1c(Cl)cccc1C(=O)Nc1ccc(C(F)(F)C(F)(F)F)cc1 [compound 1447] |  |  |  | Insecticidal effect (Test Example 1), judged from mortality [1]: A (100); Insecticidal effect (Test Example 2), judged from mortality [2, 5]: A (100); Insecticidal effect (Test Example 3), judged from mortality [3, 6]: A (100)
Cc1cc(C(F)(F)C(F)(F)F)ccc1NC(=O)c1cccc(Cl)c1C(=O)NC(C)c1ccccc1Cl (stereo not drawn) [compound 1362] | A (100) | A (100) | A (100) | 
CCN(C(=O)c1c(I)cccc1C(=O)Nc1ccc(C(F)(F)C(F)(F)F)cc1C)C(C)C [compound 1159] | A (100) | A (100) | A (100) | 
Cc1cc(C#CC(C)(C)C)ccc1NC(=O)c1cccc(I)c1C(=O)NC(C)C [compound 1305] | A (100) | A (100) | A (100) | 
